Series [1] can be described thus: Stability in bovine brain synaptosomes assessed as compound remaining at 0.35 mM incubated for 30 mins by thin layer chromatography analysis. Type of series: ADME, subcellular, Bos taurus. Conditions: cattle.
The test system of series [2] is Rattus norvegicus. The experiment in a line: Analgesic activity in Wistar rat assessed as increase in tail flick latency at 0.4 uM/kg administered intranasally and measured upto 120 mins by tail-flick test. Type of series: functional, organism-based. A general note: In hot-plate and tail-flick tests a longer latency is read as antinociception.
The nature of series [3]: Stability in bovine brain synaptosomes assessed as compound remaining at 0.35 mM incubated for 3 hrs by thin layer chromatography analysis. Type of series: ADME, subcellular, Bos taurus. The note with it: cattle; for remaining at 3 h, 350 µM: brain synaptosomes, read-out: Stability.
A short description of series [4]: Acute toxicity in Wistar rat assessed as animal death at 2 uM/kg administered intranasally and measured after 20 mins. The note with it: in vivo, inhaled_or_intranasal.
A short description of series [5]: Acute toxicity in Wistar rat assessed as nausea at 2 uM/kg administered intranasally and measured after 20 mins. The note with it: in vivo, inhaled_or_intranasal.
Series [6] can be described thus: Acute toxicity in Wistar rat assessed as animal activity at 2 uM/kg administered intranasally and measured after 20 mins. The note with it: in vivo, inhaled_or_intranasal.
The nature of series [7]: Acute toxicity in Wistar rat assessed as sleep at 2 uM/kg administered intranasally and measured after 20 mins. Conditions: in vivo, inhaled_or_intranasal.
A short description of series [8]: Acute toxicity in Wistar rat assessed as irritability at 2 uM/kg administered intranasally and measured after 20 mins. The note with it: in vivo, inhaled_or_intranasal.
A short description of series [9]: Acute toxicity in Wistar rat assessed as appetite at 2 uM/kg administered intranasally and measured after 20 mins. The note with it: in vivo, inhaled_or_intranasal.
Series [10] is described as follows: Acute toxicity in Wistar rat assessed as heart rate at 2 uM/kg administered intranasally and measured after 20 mins. Conditions: in vivo, inhaled_or_intranasal.
Series [11] in a line: Acute toxicity in Wistar rat assessed as arterial pressure at 2 uM/kg administered intranasally and measured after 20 mins. The note with it: in vivo, inhaled_or_intranasal.
Series [12] is described as follows: Acute toxicity in Wistar rat assessed as pathological abnormalities in tissues at 2 uM/kg administered intranasally and measured after 20 mins. The note with it: in vivo, inhaled_or_intranasal.
A short description of series [13]: Toxicity in Wistar rat assessed as effect on memory by measuring average distance that has been travelled to previously placed platform at 0.4 uM/kg administered intranasally by Morris water maze test. Conditions: in vivo, inhaled_or_intranasal.
The nature of series [14]: Acute toxicity in Wistar rat assessed as pathological abnormalities in organs at 2 uM/kg administered intranasally and measured after 20 mins. The note with it: in vivo, inhaled_or_intranasal.

Molecules are shown by their SMILES. Activity calls are given as the source filed them. No cut-off for these calls is given here. Where a SMILES comes first, the peptide text is derived from it. [ ]: non-standard residue; d: D form. βAla = NCCC(=O)O

For the compound `CSCC[C@H](NC(=O)[C@H](Cc1ccccc1)NC(=O)CNC(=O)CNC(=O)[C@@H](N)Cc1ccc(O)cc1)C(=O)O`, the Stability result in series [1] (0.5 h, 350 µM) is recorded as “Unstable”. For the same compound, the result in series [2] was Active.

For the compound `C[C@H](NC(=O)CCN)C(=O)N[C@@H](CCCCN)C(=O)N[C@@H](Cc1ccccc1)C(=O)NCCC(=O)O` (H-[βAla]AKF[βAla]-OH), the Stability entry in series [3] (3 h, 350 µM) is reported as “Stable”.

Regarding `NCCC(=O)N[C@@H](Cc1ccc(O)cc1)C(=O)NCC(=O)N[C@@H](Cc1ccccc1)C(N)=O` (H-[βAla]YGF-NH2), the remaining at 3 h, 350 µM in series [3] worked out at 75%. Further, the outcome in [2] was inactive.

As for `NCCC(=O)N[C@@H](Cc1ccc(O)cc1)C(=O)NCC(=O)NCC(=O)N[C@@H](Cc1ccccc1)C(N)=O` (H-[βAla]YGGF-NH2), the remaining at 3 h, 350 µM in series [3] was 75%. Further, the outcome in [2] was Active. Further, the Activity result in [4], in series [5], in [6], in series [7], in series [8] and in series [9] was “Non-Toxic” in each case. The Activity entry in series [10], in series [11], in series [12], in series [13] and in series [14] was “Non-Toxic” each time.

In the case of `C[C@H](N)C(=O)N[C@@H](CCCCN)C(=O)N[C@@H](Cc1ccccc1)C(=O)O` (H-Ala-Lys-Phe-OH), the remaining at 0.5 h, 350 µM in series [1] (brain synaptosomes, read-out: Stability) amounted to 0%.

Consider `CSCC[C@H](NC(=O)[C@H](Cc1ccccc1)NC(=O)CNC(=O)CNC(=O)[C@H](Cc1ccc(O)cc1)NC(=O)CCN)C(=O)NCCC(=O)O` (H-[βAla]YGGFM[βAla]-OH), for which the remaining at 3 h, 350 µM in series [3] was determined as 55%. For the same compound, in series [2], the result was Active.

The values are drawn from ChEMBL document CHEMBL4609979, “Design of enkephalin modifications protected from brain extracellular peptidases providing long-term analgesia” (Bioorg Med Chem, 2020).
